Values after ≈ are worked out from the molar mass of the structure shown.
Key:
[1] = test system: Staphylococcus aureus; experiment: Antimicrobial activity against methicillin-susceptible Staphylococcus aureus by broth microdilution method; assay type: functional
[2] = test system: Staphylococcus aureus; experiment: Ratio of MBC to MIC for methicillin-susceptible Staphylococcus aureus; assay type: functional
[3] = Plasma protein binding in human; assay type: ADME, cell-free; settings: read-out: PPB (converted)
[4] = test system: Staphylococcus aureus; experiment: Ratio of MBC to MIC for methicillin-susceptible Staphylococcus aureus in presence of 50% human plasma; assay type: functional
[5] = test system: Staphylococcus aureus; experiment: Antimicrobial activity against methicillin-susceptible Staphylococcus aureus by broth microdilution method in presence of 50% human plasma; assay type: functional
[6] = test system: Staphylococcus aureus; experiment: Antimicrobial activity against methicillin-resistant Staphylococcus aureus by broth microdilution method in presence of 50% human plasma; assay type: functional
[7] = test system: Staphylococcus aureus; experiment: Antimicrobial activity against methicillin-resistant Staphylococcus aureus by broth microdilution method; assay type: functional
[8] = test system: Staphylococcus aureus; experiment: Bactericidal activity against methicillin-resistant Staphylococcus aureus 20 on CAMHB media at 4 times MIC by time kill analysis in presence of 50% human plasma; assay type: functional
[9] = test system: Staphylococcus aureus; experiment: Bactericidal activity against methicillin-resistant Staphylococcus aureus 6 on CAMHB media at 4 times MIC by time kill analysis; assay type: functional
[10] = test system: Staphylococcus aureus; experiment: Bactericidal activity against methicillin-susceptible Staphylococcus aureus ATCC 25923 on CAMHB media at 4 times MIC by time kill analysis in presence of 50% human plasma; assay type: functional
[11] = test system: Staphylococcus aureus; experiment: Bactericidal activity against methicillin-susceptible Staphylococcus aureus after 24 hrs by M26-A method; assay type: functional
[12] = test system: Staphylococcus aureus; experiment: Bactericidal activity against methicillin-susceptible Staphylococcus aureus after 24 hrs by M26-A method in presence of 50% human plasma; assay type: functional
[13] = test system: Staphylococcus aureus; experiment: Bactericidal activity against methicillin-resistant Staphylococcus aureus after 24 hrs by M26-A method; assay type: functional
[14] = test system: Staphylococcus aureus; experiment: Bactericidal activity against methicillin-resistant Staphylococcus aureus after 24 hrs by M26-A method in presence of 50% human plasma; assay type: functional
[15] = test system: Staphylococcus aureus; experiment: Bactericidal activity against methicillin-resistant Staphylococcus aureus 3817 on CAMHB media at 4 times MIC by time kill analysis; assay type: functional
[16] = test system: Staphylococcus aureus; experiment: Bactericidal activity against methicillin-susceptible Staphylococcus aureus ATCC 25923 on CAMHB media at 4 times MIC by time kill analysis; assay type: functional
[17] = test system: Staphylococcus aureus; experiment: Bactericidal activity against methicillin-resistant Staphylococcus aureus 50478 on CAMHB media at 4 times MIC by time kill analysis in presence of 50% human plasma; assay type: functional
[18] = test system: Staphylococcus aureus; experiment: Bactericidal activity against methicillin-resistant Staphylococcus aureus 3817 on CAMHB media at 4 times MIC by time kill analysis in presence of 50% human plasma; assay type: functional
[19] = test system: Staphylococcus aureus; experiment: Bactericidal activity against methicillin-resistant Staphylococcus aureus 20 on CAMHB media at 4 times MIC by time kill analysis; assay type: functional
[20] = test system: Staphylococcus aureus; experiment: Bactericidal activity against methicillin-resistant Staphylococcus aureus 50478 on CAMHB media at 4 times MIC by time kill analysis; assay type: functional
[21] = test system: Staphylococcus aureus; experiment: Ratio of MIC for glycopeptide-nonsusceptible Staphylococcus aureus NJ992 in presence of 50% heat inactivated serum to MIC for glycopeptide-nonsusceptible Staphylococcus aureus NJ992; assay type: functional
[22] = test system: Staphylococcus aureus; experiment: Bactericidal activity against methicillin-resistant Staphylococcus aureus 6 on CAMHB media at 4 times MIC by time kill analysis in presence of 50% human plasma; assay type: functional

## CC(=O)O[C@H]1C[C@@]2(C)[C@@H](C[C@@H](O)[C@H]3[C@@]4(C)CC[C@@H](O)[C@@H](C)[C@@H]4CC[C@@]32C)/C1=C(\CCC=C(C)C)C(=O)O [FUSIDIC ACID]
[1]
  MIC: 0.14 µg/mL (≈ 0.271 µM)
[2]
  Ratio: 2
[3]
  fraction unbound: 0.03
[4]
  Ratio: 4
[5]
  MIC: 6.73 µg/mL
[6]
  MIC: 6.73 µg/mL
[7]
  MIC: 0.14 µg/mL (≈ 0.271 µM)

## CN[C@H](CC(C)C)C(=O)N[C@H]1C(=O)N[C@@H](CC(N)=O)C(=O)N[C@H]2C(=O)N[C@H]3C(=O)N[C@H](C(=O)N[C@H](C(=O)O)c4cc(O)cc(O)c4-c4cc3ccc4O)[C@H](O)c3ccc(c(Cl)c3)Oc3cc2cc(c3O[C@@H]2O[C@H](CO)[C@@H](O)[C@H](O)[C@H]2O[C@H]2C[C@](C)(N)[C@H](O)[C@H](C)O2)Oc2ccc(cc2Cl)[C@H]1O [VANCOMYCIN]
[1]
  MIC: 1.62 µg/mL (≈ 1.12 µM)
[8]
  Time: 17 h
[9]
  Time: 13.5 h
[10]
  Time: 12.8 h
[3]
  fraction unbound: 0.45
[11]
  MBC: 1.74 µg/mL (≈ 1.2 µM)
[12]
  MBC: 1.52 µg/mL
[13]
  MBC: 1.74 µg/mL (≈ 1.2 µM)
[14]
  MBC: 1.52 µg/mL
[5]
  MIC: 1.46 µg/mL
[15]
  Time: 17 h
[16]
  Time: 15 h
[17]
  Time: 12 h
[18]
  Time: 15.6 h
[6]
  MIC: 1.46 µg/mL
[7]
  MIC: 1.62 µg/mL (≈ 1.12 µM)
[19]
  Time: 10.6 h

## CC(=O)N[C@@H]1[C@H](Oc2c3cc4cc2Oc2ccc(cc2Cl)[C@@H](O[C@@H]2O[C@@H](CO)[C@@H](O)[C@H](O)[C@@H]2NC(C)=O)[C@@H]2NC(=O)[C@H](NC(=O)[C@@H]4NC(=O)[C@H]4NC(=O)[C@@H](Cc5ccc(c(Cl)c5)O3)NC(=O)[C@H](N)c3ccc(O)c(c3)Oc3cc(O)cc4c3)c3ccc(O)c(c3)-c3c(O[C@H]4O[C@H](CO)[C@@H](O)[C@@H](O)[C@@H]4O)cc(O)cc3[C@@H](C(=O)O)NC2=O)O[C@@H](CO)[C@@H](O)[C@@H]1O
[1]
  MIC: 1.07 µg/mL (≈ 0.605 µM)
[2]
  Ratio: 1
[11]
  MBC: 1.41 µg/mL (≈ 0.798 µM)
[4]
  Ratio: 1
[12]
  MBC: 1.68 µg/mL
[13]
  MBC: 1.41 µg/mL (≈ 0.798 µM)
[14]
  MBC: 1.68 µg/mL
[5]
  MIC: 1.23 µg/mL
[6]
  MIC: 1.23 µg/mL
[7]
  MIC: 1.07 µg/mL (≈ 0.605 µM)

## CC(=O)NC[C@H]1CN(c2ccc(N3CCOCC3)c(F)c2)C(=O)O1 [LINEZOLID]
[1]
  MIC: 3.73 µg/mL (≈ 11.1 µM)
[11]
  MBC: > 32 µg/mL
[12]
  MBC: > 32 µg/mL
[13]
  MBC: > 32 µg/mL
[14]
  MBC: > 32 µg/mL
[5]
  MIC: 2.55 µg/mL
[6]
  MIC: 2.55 µg/mL
[7]
  MIC: 3.73 µg/mL (≈ 11.1 µM)

## COc1cc(Cc2cnc(N)nc2N)c2c(c1OC)OC(C1CC1)C=C2 (configuration not stated)
[1]
  MIC: 0.09 µg/mL (≈ 0.254 µM)
[2]
  Ratio: 1
[20]
  Time: 6.8 h
[8]
  Time: 5 h
[10]
  Time: 7.2 h
[3]
  fraction unbound: 0.07
[11]
  MBC: 0.1 µg/mL (≈ 0.282 µM)
[4]
  Ratio: 1
[12]
  MBC: 0.11 µg/mL
[13]
  MBC: 0.1 µg/mL (≈ 0.282 µM)
[21]
  Ratio: 1
[14]
  MBC: 0.11 µg/mL
[5]
  MIC: 0.11 µg/mL
[15]
  Time: 6.1 h
[16]
  Time: 6.2 h
[17]
  Time: 6 h
[6]
  MIC: 0.11 µg/mL
[7]
  MIC: 0.09 µg/mL (≈ 0.254 µM)
[22]
  Time: 7.6 h
[19]
  Time: 5.5 h

Source: ChEMBL document CHEMBL1649233, “In vitro bactericidal activity of iclaprim in human plasma” (Antimicrob Agents Chemother, 2009)
